Test results: ChEMBL document CHEMBL3046926, “Molecular properties prediction, synthesis, and diuretic activity of phenoxy acetic acid bearing pyrazolines” (2013)

Legend:
Rattus norvegicus [1] = assay: Induction of diuresis in Rattus norvegicus albino (rat) assessed as urinary Cl- excretion at 1000 mg/kg, po measured at 0-5 hr after drug administration by standard Lipschitz method (reference value: 0.46 +/-0.005 mEq/L); type: functional, Urine
Rattus norvegicus [2] = assay: Induction of diuresis in Rattus norvegicus albino (rat) assessed as urinary K+ excretion at 1000 mg/kg, po measured at 0-5 hr after drug administration by standard Lipschitz method (reference value: 0.46 +/-0.006 mEq/L); type: functional, Urine
Rattus norvegicus [3] = assay: Induction of diuresis in Rattus norvegicus albino (rat) assessed as urinary Na+ excretion at 1000 mg/kg, po measured at 0-5 hr after drug administration by standard Lipschitz method (reference value: 0.90 +/-0.003 mEq/L); type: functional, Urine
Rattus norvegicus [4] = assay: Induction of diuresis activity in Rattus norvegicus albino (rat) assessed as urinary excretion at 1000 mg/kg, po measured at 0-5 hr after drug administration by standard Lipschitz method against frusemide-treated control (reference value: 0.5 no unit); type: functional, Urine
Rattus norvegicus [5] = assay: Induction of diuresis action in Rattus norvegicus albino (rat) assessed as urinary excretion at 1000 mg/kg, po measured at 0-5 hr after drug administration by standard Lipschitz method against untreated control (reference value: 1 no unit); type: functional, Urine
Rattus norvegicus [6] = assay: Induction of diuresis in Rattus norvegicus albino (rat) assessed as total urinary output at 1000 mg/kg, po measured at 0-5 hr after drug administration by standard Lipschitz method (reference value: 2.46 +/-0.125 ml); type: functional, Urine
Rattus norvegicus [7] = assay: Induction of diuresis in Rattus norvegicus albino (rat) assessed as total urinary output at 1000 mg/kg, po measured at 5-18 hr after drug administration by standard Lipschitz method (reference value: 1.26 +/-0.049 ml); type: functional, Urine
Rattus norvegicus [8] = assay: Induction of diuresis in Rattus norvegicus albino (rat) assessed as urinary excretion at 1000 mg/kg, po measured at 0-5 hr after drug administration by standard Lipschitz method (reference value: 98.40%); type: functional, Urine
Rattus norvegicus [9] = assay: Induction of diuresis in Rattus norvegicus albino (rat) assessed as urinary Cl- excretion at 1000 mg/kg, po measured at 5-18 hr after drug administration by standard Lipschitz method (reference value: 0.38 +/-0.011 mEq/L); type: functional, Urine
Rattus norvegicus [10] = assay: Induction of diuresis in Rattus norvegicus albino (rat) assessed as urinary excretion at 1000 mg/kg, po measured at 5-18 hr after drug administration by standard Lipschitz method (reference value: 50.4%); type: functional, Urine
Rattus norvegicus [11] = assay: Induction of diuresis in Rattus norvegicus albino (rat) assessed as normal saline intake at 1000 mg/kg, po measured at 0-5 hr after drug administration by standard Lipschitz method (reference value: 2.50 +/-0.036 ml); type: functional
Rattus norvegicus [12] = assay: Induction of diuresis action in Rattus norvegicus albino (rat) assessed as urinary excretion at 1000 mg/kg, po measured at 5-18 hr after drug administration by standard Lipschitz method against untreated control (reference value: 1 no unit); type: functional, Urine
Rattus norvegicus [13] = assay: Induction of diuresis in Rattus norvegicus albino (rat) assessed as urinary Na+ excretion at 1000 mg/kg, po measured at 5-18 hr after drug administration by standard Lipschitz method (reference value: 0.65 +/-0.006 mEq/L); type: functional, Urine
Rattus norvegicus [14] = assay: Induction of diuresis in Rattus norvegicus albino (rat) assessed as normal saline intake at 1000 mg/kg, po measured at 5-18 hr after drug administration by standard Lipschitz method (reference value: 2.50 +/-0.036 ml); type: functional
Rattus norvegicus [15] = assay: Induction of diuresis in Rattus norvegicus albino (rat) assessed as urinary K+ excretion at 1000 mg/kg, po measured at 5-18 hr after drug administration by standard Lipschitz method (reference value: 0.22 +/-0.004 mEq/L); type: functional, Urine
Rattus norvegicus [16] = assay: Induction of diuresis activity in Rattus norvegicus albino (rat) assessed as urinary excretion at 1000 mg/kg, po measured at 5-18 hr after drug administration by standard Lipschitz method against frusemide-treated control (reference value: 0.2 no unit); type: functional, Urine

## NC(N)=O [UREA]
Rattus norvegicus [1]
  Activity: 0.95 mEq/L
Rattus norvegicus [2]
  Activity: 0.94 mEq/L
Rattus norvegicus [3]
  Activity: 1.91 mEq/L
Rattus norvegicus [4]
  Ratio: 0.96
Rattus norvegicus [5]
  Ratio: 1.9
Rattus norvegicus [6]
  Activity: 5.13 mL
Rattus norvegicus [7]
  Activity: 6.3 mL
Rattus norvegicus [8]
  Activity: 187.91%
Rattus norvegicus [9]
  Activity: 1.94 mEq/L
Rattus norvegicus [10]
  Activity: 230.76%
Rattus norvegicus [11]
  Activity: 2.73 mL
Rattus norvegicus [12]
  Ratio: 4.6
Rattus norvegicus [13]
  Activity: 2.82 mEq/L
Rattus norvegicus [14]
  Activity: 2.73 mL
Rattus norvegicus [15]
  Activity: 2.82 mEq/L
Rattus norvegicus [16]
  Ratio: 0.93
